Key:
ESKOL cells [1] = test: Annexin V-FITC labelling of ESKOL cells (phosphatidylserine externalisation, flow cytometry); type: cell-based, human; details: 1 μg/ml, 24 hours; for % Annexin V+ cells: ESKOL cells, after subtraction of control value
Description: The induction of apoptosis was further confirmed by assessing the percentage of cells expressing phosphatidylserine at the outer leaflet of the plasma membrane by flow cytometry.
The phosphatidylserine (PS) externalisation, a membrane marker of cells undergoing apoptosis, was quantified by specific binding of FITC-conjugated annexin V (Bender Medsystems, Vienna, Austria), with or without simultaneous labelling with propidium iodide (PI), according to a modification of the technique described by Koopman (Koopman et al, Blood 1994; 84:1415-1420). The percentages of annexin V-FITC positive and PI negative cells were determined by cytometry on an EPICS Altra flow cytometer (Beckman Coulter).
The ESKOL cells (10^6/ml) were cultured in the absence (C=control) or the presence of 1 μg/ml of the various Allanblackia molecules. After 24 hours of incubation, the percentage of cells labelled with Annexin V-FITC was measured by flow cytometry as previously indicated. Results are expressed after subtraction of the value for control unstimulated cells. P values were estimated by Kolmogorov-Smirnov analysis using the Statview software.

normal PBMC = test: MTT cytotoxicity on normal PBMC; type: cell-based, human; details: 5 or 10 μg/ml, 48 hours; FIG. 5B
Description: (§1) FIG. 5: The effect of the compounds M1, M2, M4, M5 and M6 on the viability and apoptosis of normal lymphocytes was evaluated as indicated in the Examples section. A/ PBMC isolated from the blood of normal volunteers were incubated at 2×10^6/ml for 48 hours in the presence of medium alone (grey bar) or containing 1 μg/ml (black bar) or 10 μg/ml (slashed bars) of the different compounds. At the end of the incubation time, the percentage of enrichment in cytoplasmic nucleosomes was evaluated as indicated in the Examples Section. PBMC (A) and purified B lymphocytes (C) from normal blood donors were incubated for 48 hours with medium alone (grey bar) or containing 5 μg/ml (black bar) or 10 μg/ml (slashed bar) of the selected reagents M1, M2, M4 and M6. Viability was estimated after labelling the cells with a 5 hours pulse of MTT and determination of the absorbance at 540 nm as indicated in the Examples Section.
(§2) Leukemia cells from B-CLL patients were adjusted at 2×10^6/ml and 200 μl aliquots were distributed in triplicate samples in the wells of a 96-well microtitration plate and cultured in the absence or presence of the various reagents. After 18 hours of incubation at 37° C. in a humidified atmosphere containing 5% CO2, 20 μl of a 5 mg/ml solution of MTT (Sigma, St Louis, Mo., USA) were added to the wells for an additional 6 hours incubation. The microplates were centrifuged at 400×g for 20 min, the supernatants carefully discarded and 200 μl of DMSO were added to the wells to dissolve the precipitates of formazan. The optical density was measured with the use of a microplate reader (Victor-2, Wallac, Perkin Elmer, Norwalk, Mont., USA) at the wavelength of 540 nm.
(§3) Blood samples from healthy donors were obtained from the Institut Francais du Sang as residues from platelet preparations. The healthy blood donors were under 60 years old, according to the French legislation, and therefore they could not be exactly age-matched with the B-CLL patients. PBMC were prepared as described elsewhere (Zhao et al, Blood 1998; 92: 1031-1043) and normal B-lymphocytes were purified by positive selection on anti-CD19-coated magnetic beads according to the specifications of the manufacturer (Dynal, Oslo, Norway) (Kern et al, Blood 2004; 103: 679-688). Their purity usually ranged from 92% to 95%, as estimated by labelling with an anti-CD20-phycoerythrin (PE) antibody, and monocyte contamination never exceeded 2% (Kern et al, Blood 2004; 103: 679-688).

B-CLL cells = test: MTT viability of freshly isolated B-CLL cells; type: cell-based, human; details: FIG. 3, 6 B-CLL patients
Description: FIG. 3: The effect of the molecules M1, M2, M4, M5 and M6 on the viability of B-CLL cells was determined. Tumour cells freshly isolated from B-CLL patients were suspended at 2×10^6/ml in complete RPMI-1640 medium and incubated for 48 hours in the presence or absence of either 1 μg/ml (black bars) or 10 μg/ml (gray bars) of the various molecules. MTT was incorporated into the cells during the last 5 hours of incubation and the viability was measured by recording the formation of the formazan precipitate as described in the Examples section. The results are expressed as the percentage of the viability of the treated cells in comparison with control cells incubated with medium alone taken as 100% and represent the mean±SE of 6 B-CLL patients.
Blood samples from B-CLL patients were obtained from the Haematology Department of Hôtel-Dieu hospital (Paris, France) after written informed consent, in accordance with the rules and tenets of the revised Helsinki protocol. Diagnosis was established according to standard clinical and international CLL workshop criteria, including lymphocyte morphology and co-expression of CD5, CD20 and CD23 antigens. A total of 12 patients (6 men and 6 women) with an age ranging 50-84 years (mean±SD: 68±8.8 years) were selected and the time since diagnosis varied between 0 (newly diagnosed patients) and 10 years. The patients were randomly chosen for each type of experiment inasmuch as CD38 and ZAP-70 expression, cytogenetic analysis and mutational VH status were only available for a fraction of them, thus hampering a risk-group analysis. The leukemia B-cells were isolated with purity greater than 96%, as previously described (Zhao et al, Blood 1998; 92: 1031-1043). All the experiments were performed with freshly purified B-CLL leukemia cells.
M1, M2, M4, M5 and M6 were thus tested for their possible action on the viability of these leukemia cells by the MTT assay that relies on the integrity of the mitochondrial succinyl dehydrogenase.
as §2

ESKOL cells [2] = test: Antiproliferative effect on ESKOL cells (viable cell count, Coulter counter); type: cell-based, human; details: 1 and 10 μg/ml; 1, 2 or 4 days; FIGS. 1A and 1B
Description: FIG. 1: The antiproliferative effects of M1, M2, M4, M5 and M6 were compared as indicated in the Examples Section on ESKOL cells. ESKOL cells were seeded at 2×10^5 cells/ml in the wells of micro-titration plate in the presence or absence (medium alone: ◯, DMSO: […]) of M1 (□), M2 (▪), M4 (▴), M5 ([…]), M6 (◯) at the concentrations of 1 μg/ml (A) and 10 μg/ml (B). After various times of incubation (1, 2 or 4 days), aliquots were harvested and the concentration of viable cells was measured in a Coulter counter as indicated in the examples.
The anti-proliferative effects of the isolated molecules were investigated on the ESKOL cell line derived from a hairy cell leukemia patient, a chronic B cell malignancy (Harvey et al, Leuk Res. 1991; 15: 733-744).
Cells were routinely cultured at seeding densities of 2×10^6 cells/ml in RPMI-1640 medium supplemented with 2 mM glutamine, 1 mM sodium pyruvate, 100 IU/ml penicillin, 100 μg/ml streptomycin and 10% FCS (PAA Laboratories, Pasching, Austria) and cultures were performed at 37° C. in an humidified atmosphere containing 5% CO2.
For the assay, ESKOL cells were seeded at 2×10^5/ml in 24-well microtitration plate, together with two concentrations (1 and 10 μg/ml) of the […] xanthones or 1% DMSO (solvent) as control. After 1, 2 and 4 days of culture, aliquots of cells were collected and the cell concentration was evaluated by counting the number of viable cells with a Coulter Multisizer counter Z2 (Coultronics, Margency, France) allowing the discrimination between viable and dead cells and debris according to size distribution.
Cells were cultured in duplicates or triplicates and each experiment repeated 2 to 5 times.

purified B-lymphocytes = test: MTT cytotoxicity on purified normal B-lymphocytes; type: cell-based, human; details: 5 or 10 μg/ml, 48 hours; FIG. 5C
Description: as §1, §2, §3

[3] = test system: human promyelocytic leukemia HL-60 cell line; details: Matsumoto et al 2003; cited from earlier work
ESKOL cells [4] = test: Enrichment in cytoplasmic nucleosomes (DNA cleavage) in ESKOL cells; type: cell-based, human; details: 2 days, 1 or 10 μg/ml; FIG. 2B
Description: B/ The percentage of enrichment in cytoplasmic nucleosomes was evaluated simultaneously as a surrogate for DNA cleavage.
The detection of cytoplasmic histone-associated DNA fragments (mono- and oligonucleosomes) was performed in cell lysates from aliquots of 20,000 cells using an ELISA with anti-histone and anti-DNA fragment mAbs (Cell Death Detection ELISA^PLUS, Roche Diagnostics, Indianapolis, Ind., USA) as previously described (Billard et al, Leuk Lymphoma 2002; 43: 1991-2002).

[5] = test system: human colon cancer DLD-1 cells; details: Matsumoto 2005; cited from earlier work
Plasmodium = details: literature; cited from earlier work
histamine H1 receptor = details: Chairungsrilerd et al 1996; cited from earlier work
[6] = test system: human A375 melanoma cell line; details: Azebaze et al 2006; cited from earlier work
[7] = test system: human A549 lung cancer cells; details: Lee et al 2005, read-out: IC50 cytotoxic activity; cited from earlier work
[8] = test system: SK-OV3 ovarian cancer cells; details: Lee et al 2005, read-out: IC50 cytotoxic activity; cited from earlier work

In the case of `COc1ccc2oc3cc(O)c(CC=C(C)C)c(O)c3c(=O)c2c1` [M1, 1,3 dihydroxy-7-methoxy-2(3-methylbut-2enyl)xanthone], the “% Annexin V+ cells” value (ESKOL cells [1]) is reported as 5.6%, the “cytotoxic effect on normal PBMC (MTT)” value (normal PBMC) is reported as “no toxic effect” and the “viability of B-CLL cells (MTT)” value (B-CLL cells; 1 μg/ml) is reported as “no significant effect”. The “viability of B-CLL cells (MTT)” value (B-CLL cells; 10 μg/ml) was “marked reduction in the viability”, the “proliferation of ESKOL cells” value (ESKOL cells [2]) was “markedly and dose-dependently slowed down the proliferation” and the “cytotoxic effect on purified normal B-lymphocytes (MTT)” value (purified B-lymphocytes) was “no toxic effect”.

In the case of `COc1c(O)cc2oc3cc(O)c(CC=C(C)C)c(O)c3c(=O)c2c1CC=C(C)C` [M2, α-mangostin], the “increase in the percentage of Annexin V positive ESKOL cells (in words)” value (from here on “increase in the percentage”) (ESKOL cells [1]) is reported as “significant increase”, the “% Annexin V+ cells” value (ESKOL cells [1]) is reported as 15.0% and the “cytotoxic effect on normal PBMC (MTT)” value (normal PBMC) is reported as “somewhat sensitive”. The “apoptosis induction in HL-60 cell line” value [3] was “induces apoptosis”, the “viability of B-CLL cells (MTT)” value (B-CLL cells; 1 μg/ml) was “no significant effect” and the “viability of B-CLL cells (MTT)” value (B-CLL cells; 10 μg/ml) was “marked reduction in the viability”. For the same compound, the “DNA breakdown (enrichment in cytoplasmic nucleosomes) in ESKOL cells” value (shortened to “DNA breakdown”) (ESKOL cells [4]) was “potent inducers of DNA breakdown”, the “proliferation of ESKOL cells” value (ESKOL cells [2]) was “markedly and dose-dependently slowed down the proliferation” and the “cell-cycle arrest and apoptosis in DLD-1 cells” value [5] was “induces cell-cycle arrest and apoptosis”. For the same compound, the antiplasmodial activity (Plasmodium) was “displays antiplasmodial activity”, the “histamine H1 receptor antagonism” value (histamine H1 receptor) was “histamine H1 receptor antagonist” and the “cytotoxic effect on purified normal B-lymphocytes (MTT)” value (purified B-lymphocytes) was “somewhat sensitive”.

For `CC(C)=CCc1c(O)cc2oc3c(c(=O)c2c1O)C(CC=C(C)C)(CC=C(C)C)C(=O)C(O)=C3` [M4, allanxanthone C], the “increase in the percentage” value (ESKOL cells [1]) was “to a lesser degree”, the “% Annexin V+ cells” value (ESKOL cells [1]) was 10.2% and the “cytotoxic effect on normal PBMC (MTT)” value (normal PBMC) was “no toxic effect”. For the same compound, the “viability of B-CLL cells (MTT)” value (B-CLL cells; 1 μg/ml) was “no significant effect”, the “viability of B-CLL cells (MTT)” value (B-CLL cells; 10 μg/ml) was “marked reduction in the viability” and the “DNA breakdown” value (ESKOL cells [4]) was “potent inducers of DNA breakdown”. For the same compound, the “proliferation of ESKOL cells” value (ESKOL cells [2]) was “markedly and dose-dependently slowed down the proliferation” and the “cytotoxic effect on purified normal B-lymphocytes (MTT)” value (purified B-lymphocytes) was “no toxic effect”.

For `CC(C)=CCC/C(C)=C/Cc1c(O)c(O)cc2oc3cc(O)c(CC=C(C)C)c(O)c3c(=O)c12` [M5, norcowanin], the “increase in the percentage” value (ESKOL cells [1]) was “to a lesser degree”, the “% Annexin V+ cells” value (ESKOL cells [1]) was 9.4% and the “viability of B-CLL cells (MTT)” value (B-CLL cells; 1 μg/ml) was “no significant effect”. For the same compound, the “viability of B-CLL cells (MTT)” value (B-CLL cells; 10 μg/ml) was “marked reduction in the viability”, the “DNA breakdown” value (ESKOL cells [4]) was “potent inducers of DNA breakdown” and the “proliferation of ESKOL cells” value (ESKOL cells [2]) was “markedly and dose-dependently slowed down the proliferation”. For the same compound, the antiplasmodial activity (Plasmodium) was “antiplasmodial activity” and the “cytotoxicity on A375 cell line” value [6] was “weak cytotoxicity”.

In the case of `C=CC(C)(C)c1c2c(c(O)c3c(=O)c4ccc(O)c(O)c4oc13)C=CC(C)(C)O2` [M6, Macluraxanthone], the “increase in the percentage” value (ESKOL cells [1]) is reported as “significant increase”, the “% Annexin V+ cells” value (ESKOL cells [1]) is reported as 36.5% and the “cytotoxic effect on normal PBMC (MTT)” value (normal PBMC) is reported as “somewhat sensitive”. For the same compound, the “viability of B-CLL cells (MTT)” value (B-CLL cells; 1 μg/ml) was “no significant effect”, the “viability of B-CLL cells (MTT)” value (B-CLL cells; 10 μg/ml) was “marked reduction in the viability” and the “DNA breakdown” value (ESKOL cells [4]) was “potent inducers of DNA breakdown”. For the same compound, the “proliferation of ESKOL cells” value (ESKOL cells [2]) was “markedly and dose-dependently slowed down the proliferation”, the IC50 [7] was 2.88 µM and the “cytotoxic effect on purified normal B-lymphocytes (MTT)” value (purified B-lymphocytes) was “somewhat sensitive”. For the same compound, the IC50 [8] was 4.24 µM.

In the case of allanxanthone C [M4], the antiplasmodial activity (Plasmodium) is listed as “displays antiplasmodial activity” and the “cytotoxicity on A375 cell line” value [6] is listed as “cytotoxicity”.

From US20110263694A1, “Use of Xanthone Derivatives as a Medicament for Cancer” (MUSEUM NATIONAL D'HISTOIRE NATURELLE, priority 2008, published 2011)
